# Assay results reported in patent US12129246B1, “Hydroquinazoline derivatives for the treatment of a disease or disorder” (Novartis AG, priority 2023, dated 2024).
# Where two headings read alike, the source gives them in different places.
# How the values were obtained:
# monkey NPR1 = monkey NPR1 (Macaca fascicularis, UniProt A0A7N9DBT9); assay: Cellular cGMP production assay, monkey NPR1 expressing CHO-K1 cells (CisBio HTRF); assay type: cell-based; conditions: for Monkey NPR1 Amax (% of ANP): maximum cGMP production as percentage of the maximum cGMP produced with ANP
# monkey NPR1, sequence (A0A7N9DBT9 entry or part of it): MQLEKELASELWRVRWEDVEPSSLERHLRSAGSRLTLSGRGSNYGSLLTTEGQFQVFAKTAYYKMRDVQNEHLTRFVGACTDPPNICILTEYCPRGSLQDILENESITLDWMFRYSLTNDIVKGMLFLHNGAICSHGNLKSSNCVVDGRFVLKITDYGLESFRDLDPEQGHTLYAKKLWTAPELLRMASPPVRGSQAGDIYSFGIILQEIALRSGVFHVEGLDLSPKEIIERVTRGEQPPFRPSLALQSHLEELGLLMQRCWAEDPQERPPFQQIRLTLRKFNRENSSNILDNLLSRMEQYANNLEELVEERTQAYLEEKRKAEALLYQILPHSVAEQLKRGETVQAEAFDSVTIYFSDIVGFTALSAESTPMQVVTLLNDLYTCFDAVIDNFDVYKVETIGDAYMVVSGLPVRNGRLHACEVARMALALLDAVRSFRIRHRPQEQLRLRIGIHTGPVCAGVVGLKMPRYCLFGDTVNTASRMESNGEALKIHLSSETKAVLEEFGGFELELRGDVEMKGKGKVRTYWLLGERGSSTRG
# Method in brief: (§1)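 Step 1: add buffer (PBS, 0.1% BSA, 1 mM IBMX) and compounds, 3-fold series from 30 μM top. Step 2: incubate 30 min, 37 °C. Step 3: lyse; HTRF reagents 1 h at RT.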
# human NPR1 = target: T1, human NPR1 (Homo sapiens, UniProt P16066); assay: Cellular cGMP production assay, human NPR1 expressing CHO-K1 cells (CisBio HTRF); assay type: cell-based; conditions: for AC50: cGMP production, 30 min at 37° C., 12-point dose-response from 30 μM; for Human NPR1 Amax (% of ANP): maximum cGMP production as percentage of the maximum cGMP produced with ANP
# T1 construct: host or cells: CHO-K1
# T1 sequence (P16066 33-1061): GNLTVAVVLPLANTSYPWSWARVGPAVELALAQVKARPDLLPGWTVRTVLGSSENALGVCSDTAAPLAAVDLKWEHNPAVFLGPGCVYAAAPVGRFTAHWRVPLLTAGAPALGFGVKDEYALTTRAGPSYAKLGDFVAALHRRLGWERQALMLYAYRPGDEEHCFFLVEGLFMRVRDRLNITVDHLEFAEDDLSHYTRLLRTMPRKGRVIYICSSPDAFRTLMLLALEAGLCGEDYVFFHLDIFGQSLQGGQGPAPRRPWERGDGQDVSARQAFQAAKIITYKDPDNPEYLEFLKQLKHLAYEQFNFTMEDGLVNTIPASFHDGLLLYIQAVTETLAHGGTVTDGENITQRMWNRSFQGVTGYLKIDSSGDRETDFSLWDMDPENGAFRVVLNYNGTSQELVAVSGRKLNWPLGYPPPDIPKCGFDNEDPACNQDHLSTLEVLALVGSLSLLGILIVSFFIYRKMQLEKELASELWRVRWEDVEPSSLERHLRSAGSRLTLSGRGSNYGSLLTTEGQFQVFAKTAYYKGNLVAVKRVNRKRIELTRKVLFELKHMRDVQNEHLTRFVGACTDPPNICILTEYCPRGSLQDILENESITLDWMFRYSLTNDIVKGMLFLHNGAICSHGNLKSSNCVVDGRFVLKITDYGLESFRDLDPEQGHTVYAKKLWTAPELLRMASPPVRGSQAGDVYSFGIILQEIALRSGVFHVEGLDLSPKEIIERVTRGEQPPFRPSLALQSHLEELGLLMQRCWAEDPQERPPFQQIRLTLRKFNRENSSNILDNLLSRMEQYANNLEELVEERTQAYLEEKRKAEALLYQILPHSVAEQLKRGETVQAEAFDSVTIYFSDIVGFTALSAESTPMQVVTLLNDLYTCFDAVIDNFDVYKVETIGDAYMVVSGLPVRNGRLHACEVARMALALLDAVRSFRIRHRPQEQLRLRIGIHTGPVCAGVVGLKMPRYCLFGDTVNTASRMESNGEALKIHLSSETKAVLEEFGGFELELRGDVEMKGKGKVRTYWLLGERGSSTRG
# Method in brief: as §1
# [1] = cGMP production, monkey NPR1 CHO-K1 cells, 30 min at 37° C., 12-point dose-response from 30 μM, read-out: Monkey NPR1 AC50
SMILES,AC50 (monkey NPR1; [1]) [nM],Monkey NPR1 Amax (% of ANP) (monkey NPR1; monkey NPR1 CHO-K1 cells),AC50 (human NPR1) [nM],Human NPR1 Amax (% of ANP) (human NPR1),AC50 (monkey NPR1) [nM]
"CC[C@H]([C@H]1CC[C@H](C(=O)O)CC1)N(C)c1nc2c(c(N[C@@H](CN3CCCC(F)C3)c3cnn(C)c3)n1)C[C@H](c1ccccc1)CC2 (stereo partly drawn) [Compound 156, (1R,4r)-4-((1R)-1-(((6R)-4-(((1R)-2-(3-fluoropiperidin-1-yl)-1-(1-methyl-1H-pyrazol-4-yl)ethyl)amino)-6-phenyl-5,6,7,8-tetrahydroquinazolin-2-yl)(methyl)amino)propyl)cyclohexane-1-carboxylic acid]",1160,105.900 % of ANP,1300,93.013 % of ANP,
"CC[C@H]([C@H]1CC[C@H](C(=O)O)CC1)N(C)c1nc2c(c(N[C@@H](CN3CCCCC3)c3cnn(C)c3)n1)CN(c1cccc(F)c1)CC2 [Compound 157, (1R,4r)-4-((R)-1-((6-(3-fluorophenyl)-4-(((R)-1-(1-methyl-1H-pyrazol-4-yl)-2-(piperidin-1-yl)ethyl)amino)-5,6,7,8-tetrahydropyrido[4,3-d]pyrimidin-2-yl)(methyl)amino)propyl)cyclohexane-1-carboxylic acid]",999,105.667 % of ANP,1430,99.549 % of ANP,
"CC(Nc1nc2c(c(N[C@@H](CN3CCCC3)c3ccccc3)n1)CC(c1ccccc1)CC2)[C@H]1CC[C@H](C(=O)O)CC1 (stereo partly drawn) [Compound 158, (1S,4r)-4-((1S)-1-((6-phenyl-4-(((R)-1-phenyl-2-(pyrrolidin-1-yl)ethyl)amino)-5,6,7,8-tetrahydroquinazolin-2-yl)amino)ethyl)cyclohexane-1-carboxylic acid]",1270,165.777 % of ANP,1430,109.837 % of ANP,
"C[C@@H](Nc1nc2c(c(N[C@@H](CN3CCCC3)c3ccccc3)n1)C[C@H](c1ccccc1)CC2)c1ccc(C(=O)O)cc1 [Compound 159, 4-((R)-1-(((R)-6-phenyl-4-(((R)-1-phenyl-2-(pyrrolidin-1-yl)ethyl)amino)-5,6,7,8-tetrahydroquinazolin-2-yl)amino)ethyl)benzoic acid]",503,98.468 % of ANP,1580,92.446 % of ANP,
"CC[C@@H](Nc1nc2c(c(N[C@@H](CN3CC4CCC3C4)c3ccccc3)n1)C[C@H](c1ccccc1)CC2)[C@H]1CC[C@H](C(=O)O)CC1 (stereo partly drawn) [Compound 160, (1R,4r)-4-((1R)-1-(((6R)-4-(((1R)-2-(2-azabicyclo[2.2.1]heptan-2-yl)-1-phenylethyl)amino)-6-phenyl-5,6,7,8-tetrahydroquinazolin-2-yl)amino)propyl)cyclohexane-1-carboxylic acid]",1430,102.098 % of ANP,1620,94.868 % of ANP,
"CC[C@H]([C@H]1CC[C@H](C(=O)O)CC1)N(C)c1nc2c(c(N[C@@H](CN3CCC[C@H](C)C3)c3ccnn3C)n1)C[C@H](c1cccc(F)c1)CC2 [Compound 161, (1R,4r)-4-((R)-1-(((R)-6-(3-fluorophenyl)-4-(((S)-1-(1-methyl-1H-pyrazol-5-yl)-2-((S)-3-methylpiperidin-1-yl)ethyl)amino)-5,6,7,8-tetrahydroquinazolin-2-yl)(methyl)amino)propyl)cyclohexane-1-carboxylic acid]",989,97.242 % of ANP,1680,108.479 % of ANP,
"CC[C@H]([C@H]1CC[C@H](C(=O)O)CC1)N(C)c1nc2c(c(N[C@@H](CN3CCCC4(CCOC4)C3)c3cnn(CC)c3)n1)C[C@H](c1ccccc1)CC2 (stereo partly drawn) [Compound 162, (1R,4r)-4-((1R)-1-(((6R)-4-(((1R)-1-(1-ethyl-1H-pyrazol-4-yl)-2-(2-oxa-7-azaspiro[4.5]decan-7-yl)ethyl)amino)-6-phenyl-5,6,7,8-tetrahydroquinazolin-2-yl)(methyl)amino)propyl)cyclohexane-1-carboxylic acid]",1310,89.971 % of ANP,1700,83.721 % of ANP,
"CC[C@H]([C@H]1CC[C@H](C(=O)O)CC1)N(C)c1nc2c(c(N[C@@H](CN3CCC[C@H](O)C3)c3cnn(CC)c3)n1)C[C@H](c1cccc(F)c1)CC2 [Compound 163, (1R,4r)-4-((R)-1-(((R)-4-(((R)-1-(1-ethyl-1H-pyrazol-4-yl)-2-((S)-3-hydroxypiperidin-1-yl)ethyl)amino)-6-(3-fluorophenyl)-5,6,7,8-tetrahydroquinazolin-2-yl)(methyl)amino)propyl)cyclohexane-1-carboxylic acid]",1270,102.145 % of ANP,1710,103.903 % of ANP,
"CC[C@H]([C@H]1CC[C@H](C(=O)O)CC1)N(C)c1nc2c(c(N[C@@H](CN3C4CCCC3CC4)c3ccnn3C)n1)C[C@H](c1cccc(F)c1)CC2 [Compound 164, (1R,4r)-4-((1R)-1-(((6R)-4-(((1S)-2-(8-azabicyclo[3.2.1]octan-8-yl)-1-(1-methyl-1H-pyrazol-5-yl)ethyl)amino)-6-(3-fluorophenyl)-5,6,7,8-tetrahydroquinazolin-2-yl)(methyl)amino)propyl)cyclohexane-1-carboxylic acid]",,92.193 % of ANP,1780,94.088 % of ANP,946
"CC[C@@H](Nc1nc2c(c(N[C@@H](CN(C)C)c3ccccc3)n1)C[C@H](c1ccccc1)CC2)[C@H]1CC[C@H](C(=O)O)CC1 [Compound 165, (1R,4r)-4-((R)-1-(((R)-4-(((R)-2-(dimethylamino)-1-phenylethyl)amino)-6-phenyl-5,6,7,8-tetrahydroquinazolin-2-yl)amino)propyl)cyclohexane-1-carboxylic acid]",1080,87.861 % of ANP,1810,90.595 % of ANP,
"CC[C@@H](Nc1nc2c(c(N[C@@H](CNC3CCOCC3)c3ccccc3)n1)C[C@H](c1ccccc1)CC2)[C@H]1CC[C@H](C(=O)O)CC1 [Compound 166, (1R,4r)-4-((R)-1-(((R)-6-phenyl-4-(((R)-1-phenyl-2-((tetrahydro-2H-pyran-4-yl)amino)ethyl)amino)-5,6,7,8-tetrahydroquinazolin-2-yl)amino)propyl)cyclohexane-1-carboxylic acid]",1980,96.913 % of ANP,2000,101.913 % of ANP,
"CC[C@H]([C@H]1CC[C@H](C(=O)O)CC1)N(C)c1nc2c(c(N[C@@H](CN3CCCCC3)c3cnn(CC(F)(F)F)c3)n1)C[C@H](c1ccccc1)CC2 [Compound 167, (1R,4r)-4-((R)-1-(methyl((R)-6-phenyl-4-(((R)-2-(piperidin-1-yl)-1-(1-(2,2,2-trifluoroethyl)-1H-pyrazol-4-yl)ethyl)amino)-5,6,7,8-tetrahydroquinazolin-2-yl)amino)propyl)cyclohexane-1-carboxylic acid]",1430,98.847 % of ANP,2090,112.087 % of ANP,
